Assay results from patent US20260184707A1, “PHARMACEUTICAL COMPOUNDS FOR THE TREATMENT OF COMPLEMENT MEDIATED DISORDERS” (ALEXION PHARMACEUTICALS, INC., priority 2022, published 2026).

Target: T1, Human complement C1s enzyme (Homo sapiens, UniProt P09871)
T1 construct: purified from human serum, Complement Technology, Inc; purchased Complement Technology, Inc; host or cells: human serum (plasma-derived native protein)
T1 sequence (P09871 438-688 limits assumed): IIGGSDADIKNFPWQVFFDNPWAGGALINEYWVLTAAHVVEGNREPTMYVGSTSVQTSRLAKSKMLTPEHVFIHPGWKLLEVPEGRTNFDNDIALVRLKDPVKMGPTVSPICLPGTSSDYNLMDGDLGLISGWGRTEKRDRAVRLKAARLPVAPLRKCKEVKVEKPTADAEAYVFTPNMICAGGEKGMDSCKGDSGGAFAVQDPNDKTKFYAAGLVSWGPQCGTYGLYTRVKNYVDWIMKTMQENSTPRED
T1 sequence (P09871 16-437 partner limits assumed): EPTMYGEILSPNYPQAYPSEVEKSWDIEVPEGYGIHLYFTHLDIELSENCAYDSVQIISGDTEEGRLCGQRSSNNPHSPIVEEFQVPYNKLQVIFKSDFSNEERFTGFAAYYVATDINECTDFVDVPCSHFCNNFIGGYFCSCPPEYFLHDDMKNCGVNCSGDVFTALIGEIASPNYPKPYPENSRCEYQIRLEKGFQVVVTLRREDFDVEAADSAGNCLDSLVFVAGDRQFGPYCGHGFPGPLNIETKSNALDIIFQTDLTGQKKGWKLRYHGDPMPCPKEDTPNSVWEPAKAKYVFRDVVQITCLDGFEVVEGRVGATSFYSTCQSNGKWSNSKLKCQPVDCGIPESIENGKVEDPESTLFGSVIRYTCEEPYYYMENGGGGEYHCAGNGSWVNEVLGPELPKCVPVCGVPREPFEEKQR
Assay: Human C1s enzyme assay
Type: biochemical
Settings: human complement C1s enzyme 1.16 nM, substrate Z-L-Lys-SBzl, A405; read-out: IC50 (Stars)
In short: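 Serum-purified human C1s (1.16 nM final) preincubated 5 min at room temperature with compound in 50 mM Tris, 1 M NaCl, pH 7.5. Z-L-Lys-SBzl and DTNB added at 100 μM each; A405 recorded every 30 s. IC50 from nonlinear regression of reaction rates versus compound concentration.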

## C[C@@H](Nc1cnc(-c2ccccc2F)n(CC(=O)NCc2cc3cnccc3[nH]2)c1=O)c1ccc2oc3ccccc3c2c1 [Compound 237, (R)-N-((1H-pyrrolo[3,2-c]pyr-idin-2-yl)methyl)-2-(5-((1-(dibenzo[b,d]furan-2-yl)ethyl)-amino)-2-(2-fluorophenyl)-6-oxopyrimidin-1(6H)-yl)acet-amide]
  IC50: < 100 nM

## CO[C@@H]1CO[C@H]2[C@@H]1OC[C@H]2Oc1ccc(-c2ncc(N[C@H](C)c3ccc4oc5ccccc5c4c3)c(=O)n2CC(=O)NCc2cc3cnccc3[nH]2)cc1 [Compound 238, N-((1H-pyrrolo[3,2-c]pyridin-2-yl)methyl)-2-(5-(((R)-1-(dibenzo[b,d]furan-2-yl)ethyl)-amino)-2-(4-(((3R,3aR,6R, 6aR)-6-methoxyhexahydrofuro [3,2-b]furan-3-yl)oxy)phenyl)-6-oxopyrimidin-1(6H)-yl)acet-amide]
  IC50: < 100 nM

## C[C@H](NC(=O)Cn1c(-c2ccccc2)ncc(N[C@H](C)c2ccc3oc4ccccc4c3c2)c1=O)c1cc2cnccc2[nH]1 [Compound 239, N-((S)-1-(1H-pyrrolo[3,2-c]pyridin-2-yl)ethyl)-2-(5-(((R)-1-(dibenzo[b,d]furan-2-yl)-ethyl)amino)-6-oxo-2-phenyl-pyrimidin-1(6H)-yl)acetamide]
  IC50: > 1000 nM

## O=C(Cn1c(-c2ccccc2)ncc(NC(=O)c2ccc(-c3ccccc3)c(F)c2)c1=O)NCc1cc2cnccc2[nH]1 [Compound 240, N-(1-(2-(((1H-pyrrolo[3,2-c]pyridin-2-yl)methyl)amino)-2-oxoethyl)-6-oxo-2-phenyl-1,6-dihydropyrimidin-5-yl)-2-fluoro-[1,1′-biphenyl]-4-carboxamide]
  IC50: < 100 nM

## O=C(Cn1c(C2=CCCCC2)ncc(NCc2ccc3oc4ccccc4c3c2)c1=O)NCc1cc2cnccc2[nH]1 [Compound 241, N-((1H-pyrrolo[3,2-c]pyridin-2-yl)methyl)-2-(2-(cyclohex-1-en-1-yl)-5-((dibenzo[b,d]furan-2-ylmethyl)amino)-6-oxopyrimidin-1(6H)-yl)acet-amide]
  IC50: < 100 nM

## O=C(Cn1c(-c2cccnc2)ncc(NCc2ccc3oc4ccccc4c3c2)c1=O)NCc1cc2cnccc2[nH]1 [Compound 242, N-((1H-pyrrolo[3,2-c]pyridin-2-yl)methyl)-2-(5-((dibenzo [b,d]furan-2-ylmethyl)amino)-6-oxo-2-(pyridin-3-yl)pyrimi-din-1(6H)-yl)acetamide]
  IC50: < 100 nM

## O=C(Cn1c(-c2ccccc2)ncc(NC(=O)C23CC(c4ccccc4)(C2)C3)c1=O)NCc1cc2cnccc2[nH]1 [Compound 243, N-(1-(2-(((1H-pyrrolo[3,2-c]pyridin-2-yl)methyl)amino)-2-oxoethyl)-6-oxo-2-phenyl-1,6-dihydropyrimidin-5-yl)-3-phenylbicyclo[1.1.1]pentane-1-carboxamide]
  IC50: 100 to 1000 nM

## Cc1cc(F)cc(C)c1Nc1cnc(-c2ccccc2)n(CC(=O)NCc2cc3cnccc3[nH]2)c1=O [Compound 244, N-((1H-pyrrolo[3,2-c]pyridin-2-yl)methyl)-2-(5-((4-fluoro-2,6-dimethylphenyl)amino)-6-oxo-2-phenylpyrimidin-1(6H)-yl)acetamide]
  IC50: < 100 nM

## O=C(Cn1c(-c2ccccc2)ncc(Nc2ccc3c(c2)oc2ccccc23)c1=O)NCc1cc2cnccc2[nH]1 [Compound 245]
  IC50: < 100 nM

## O=C(Cn1cncc(NCc2ccc3oc4ccccc4c3c2)c1=O)NCc1cc2cnccc2[nH]1 [Compound 246, 2-[5-(Dibenzofuran-2-ylmethylamino)-6-oxo-pyrimidin-1-yl]-N-(1H-pyrrolo[3,2-c]pyridine-2-ylmethyl)acetamide]
  IC50: < 100 nM

## Cc1ncc(NCc2ccc3oc4ccccc4c3c2)c(=O)n1CC(=O)NCc1cc2cnccc2[nH]1 [Compound 247, N-((1H-pyrrolo[3,2-c]pyridin-2-yl)methyl)-2-(5-((dibenzo [b,d]furan-2-ylmethyl)amino)-2-methyl-6-oxopyrimidin-1(6H)-yl)acetamide]
  IC50: < 100 nM

## COc1ccc(-c2ncc(N[C@H](C)c3ccc4oc5ccccc5c4c3)c(=O)n2CC(=O)NCc2cc3cnccc3[nH]2)cc1 [Compound 248, (R)-N-((1H-pyrrolo[3,2-c]pyr-idin-2-yl)methyl)-2-(5-((1-(dibenzo[b,d]furan-2-yl)ethyl)-amino)-2-(4-methoxyphenyl)-6-oxopyrimidin-1(6H)-yl)-acetamide]
  IC50: < 100 nM

## CO[C@@H]1CO[C@H]2[C@@H]1OC[C@H]2Oc1ccc(-c2ncc(NC(=O)c3ccc(-c4ccccc4)s3)c(=O)n2CC(=O)NCc2cc3cnccc3[nH]2)cc1 [Compound 249, N-(1-(2-(((1H-pyrrolo[3,2-c]pyridine-2-yl)methyl)amino)-2-oxoethyl)-2-(4-(((3R,3aR,6R,6aR)-6-methoxyhexahydrofuro[3,2-b]furan-3-yl)oxy)phenyl)-6-oxo-1,6-dihydropyrimidin-5-yl)-5-phenylthiophene-2-carboxamide]
  IC50: < 100 nM

## O=C(Cn1c(-c2ccccc2)ncc(NCc2ccc(-c3ccccc3F)cc2)c1=O)NCc1cc2cnccc2[nH]1 [Compound 250, N-((1H-pyrrolo[3,2-c]pyridin-2-yl)methyl)-2-(5-(((2′-fluoro-[1,1′-biphenyl]-4-yl)methyl)amino)-6-oxo-2-phenylpyrimidin-1(6H)-yl)acetamide]
  IC50: < 100 nM

## O=C(Cn1c(-c2cccs2)ncc(NCc2ccc3oc4ccccc4c3c2)c1=O)NCc1cc2cnccc2[nH]1 [Compound 251, N-((1H-pyrrolo[3,2-c]pyridin-2-yl)methyl)-2-(5-((dibenzo [b,d]furan-2-ylmethyl)amino)-6-oxo-2-(thiophen-2-yl)pyrimi-din-1(6H)-yl)acetamide]
  IC50: < 100 nM

## O=C(Cn1c(-c2ccccn2)ncc(NCc2ccc3oc4ccccc4c3c2)c1=O)NCc1cc2cnccc2[nH]1 [Compound 252, N-((1H-pyrrolo[3,2-c]pyridin-2-yl)methyl)-2-(5-((dibenzo [b,d]furan-2-ylmethyl)amino)-6-oxo-2-(pyridin-2-yl)pyrimi-din-1(6H)-yl)acetamide]
  IC50: < 100 nM

## O=C(Cn1c(C2CCCC2)ncc(NCc2ccc3oc4ccccc4c3c2)c1=O)NCc1cc2cnccc2[nH]1 [Compound 253, N-((1H-pyrrolo[3,2-c]pyridine-2-yl)methyl)-2-(2-cyclopentyl-5-((dibenzo[b,d]furan-2-ylmethyl)amino)-6-oxopyrimidin-1(6H)-yl)acetamide]
  IC50: < 100 nM

## O=C(Cn1c(-c2ccccc2)ncc(NC(=O)C2CCC(c3ccccc3)CC2)c1=O)NCc1cc2cnccc2[nH]1 (centres unmarked) [Compound 254, N-(1-(2-(((1H-pyrrolo[3,2-c]pyridin-2-yl)methyl)amino)-2-oxoethyl)-6-oxo-2-phenyl-1,6-dihydropyrimidin-5-yl)-4-phen-ylcyclohexane-1-carboxamide]
  IC50: < 100 nM

## O=C(Cn1c(-c2ccc(S(F)(F)(F)(F)F)cc2)ncc(NCc2ccc3c(c2)-c2ccccc2C3(F)F)c1=O)NCc1cc2cnccc2[nH]1 [Compound 255, N-((1H-pyrrolo[3,2-c]pyridine-2-yl)methyl)-2-(5-(((9,9-difluoro-9H-fluoren-3-yl)methyl)amino)-6-oxo-2-(4-(pentafluoro-λ^6-sulfaneyl)phenyl)pyrimidin-1(6H)-yl)acetamide]
  IC50: < 100 nM

## O=C(Cn1c(-c2ccccc2)ncc(NC(=O)c2ccc(-c3ccccc3)s2)c1=O)NCc1ccc(Cl)cc1 [Compound 256, N-(1-(2-((4-chlorobenzyl)-amino)-2-oxoethyl)-6-oxo-2-phenyl-1,6-dihydropyrimidin-5-yl)-5-phenylthiophene-2-carboxamide]
  IC50: > 1000 nM
